Patent US20260250290A1 (BRISTOL-MYERS SQUIBB COMPANY, priority 2023, published 2026)

Target: T1, full length SGK1 (Homo sapiens, UniProt O00141)
T1 construct: 125 μM full length SGK1 (Life Technologies Part #PR7358A); purchased Life Technologies PR7358A
T1 sequence (O00141 1-431): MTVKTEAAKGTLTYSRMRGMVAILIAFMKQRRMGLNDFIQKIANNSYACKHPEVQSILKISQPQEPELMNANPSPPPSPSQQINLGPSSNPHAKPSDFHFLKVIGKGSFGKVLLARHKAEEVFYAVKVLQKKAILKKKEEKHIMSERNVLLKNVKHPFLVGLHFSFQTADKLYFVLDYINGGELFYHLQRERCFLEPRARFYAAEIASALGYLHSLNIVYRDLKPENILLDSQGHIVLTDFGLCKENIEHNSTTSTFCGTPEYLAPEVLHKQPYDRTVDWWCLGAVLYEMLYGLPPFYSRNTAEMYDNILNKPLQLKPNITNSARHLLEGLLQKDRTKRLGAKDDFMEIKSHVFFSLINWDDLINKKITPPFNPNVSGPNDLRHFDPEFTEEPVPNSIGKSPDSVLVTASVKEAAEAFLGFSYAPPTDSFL
Assay: SGK1 inhibition Assay A (Caliper LabChip electrophoretic separation of fluorescent peptide substrate and phosphorylated product)
Format: biochemical
Conditions: Assay A; 20 μM ATP, 40 min incubation; read-out: SGK1 IC50

Row | IC50 [nM] | Compound
1 | 30 | CC(=O)NCCOc1cc(C(F)F)sc1C(=O)N[C@@H]1CCCN(c2cc(-c3cnc(C#N)c(C)c3)n3ncnc(N)c23)C1 [Example 426, (R)-3-(2-acetamidoethoxy)-N-(1-(4-amino-7-(6-cyano-5-methylpyridin-3-yl)pyrrolo[2,1-f][1,2,4]triazin-5-yl)piperidin-3-yl)-5-(difluoromethyl)thiophene-2-carboxamide]
2 | 2 | CN1CCC(Oc2cc(Cl)sc2C(=O)N[C@@H]2CCCN(c3cc(-c4ccc(C(N)=O)c(F)c4)n4ncnc(N)c34)C2)CC1 [Example 589, (R)-N-(1-(4-amino-7-(4-carbamoyl-3-fluorophenyl)pyrrolo[2,1-f][1,2,4]triazin-5-yl)piperidin-3-yl)-5-chloro-3-((1-methylpiperidin-4-yl)oxy)thiophene-2-carboxamide]
3 | 36 | CN(C)CCOc1c(C(=O)N[C@@H]2CCCN(c3cc(-c4ccc(C#N)c(F)c4)n4ncnc(N)c34)C2)[nH]c2ccccc12 [Example 368, (R)-N-(1-(4-amino-7-(4-cyano-3-fluorophenyl)pyrrolo[2,1-f][1,2,4]triazin-5-yl)piperidin-3-yl)-3-(2-(dimethylamino)ethoxy)-1H-indole-2-carboxamide]
4 | 13 | CN(C)CCOc1c(C(=O)N[C@@H]2CCCN(c3cc(-c4ccc(C(N)=O)nc4)n4ncnc(N)c34)C2)sc2ccccc12 [Example 664, (R)-5-(4-amino-5-(3-(3-(2-(dimethylamino)ethoxy)benzo[b]thiophene-2-carboxamido)piperidin-1-yl)pyrrolo[2,1-f][1,2,4]triazin-7-yl)picolinamide]

Continued, compound first:

Row | Compound | IC50 [nM]
5 | CC(C)N1CCC(c2cc(C(F)F)sc2C(=O)N[C@@H]2CCCN(c3cc(-c4ccc(C(N)=O)nc4)n4ncnc(N)c34)C2)C1 (stereo partly drawn) [Example 404, 5-(4-amino-5-((3R)-3-(5-(difluoromethyl)-3-(1-isopropylpyrrolidin-3-yl)thiophene-2-carboxamido)piperidin-1-yl)pyrrolo[2,1-f][1,2,4]triazin-7-yl)picolinamide] | 254
6 | CC(=O)N1CC=C(c2cc(N3CCCC(NC(=O)c4sc(Cl)cc4OCC4CCNC4)C3)c3c(N)ncnn23)C1 (single isomer, unassigned) [Example 639] | 4
7 | COc1cc(C(=O)N[C@@H]2CCCN(c3cc(C4=CCN(C(C)=O)C4)n4ncnc(N)c34)C2)sn1 [Example 256, (R)—N-(1-(7-(1-acetyl-2,5-dihydro-1H-pyrrol-3-yl)-4-aminopyrrolo[2,1-f][1,2,4]triazin-5-yl)piperidin-3-yl)-3-methoxyisothiazole-5-carboxamide] | 0.5
8 | tert-butyl (R)-3- ((2-((1-(4-amino- 7-(6-cyanopyridin-3- yl)pyrrolo[2,1-f] [1,2,4]triazin-5- yl)piperidin-3- yl)carbamoyl) benzo[b]thiophen- 3-yl)oxy)azetidine- 1-carboxylate [Example 672] | 65
9 | CC(=O)N1CC=C(c2cc(N3CCC[C@@H](NC(=O)c4cccc(NCC5CN(C)C5)n4)C3)c3c(N)ncnn23)C1 [Example 780, (R)-N-(1-(7-(1-acetyl-2,5-dihydro-1H-pyrrol-3-yl)-4-aminopyrrolo[2,1-f][1,2,4]triazin-5-yl)piperidin-3-yl)-6-(((1-methylazetidin-3-yl)methyl)amino)picolinamide] | 25
10 | Cc1nc(-c2cc(C(=O)N3CC=C(c4cc(N5CCC[C@@H](NC(=O)c6ccc(Cl)s6)C5)c5c(N)ncnn45)C3)no2)cs1 [Example 884, (R)-N-(1-(4-amino-7-(1-(5-(2-methylthiazol-4-yl)isoxazole-3-carbony1)-2,5-dihydro-1H-pyrrol-3-yl)pyrrolo[2,1-f][1,2,4]triazin-5-y1)piperidin-3-y1)-5-chlorothiophene-2-carboxamide] | 99
11 | CC(=O)N1CC=C(c2cc(N3CCC[C@@H](NC(=O)c4ccon4)C3)c3c(N)ncnn23)C1 [Example 879, (R)—N-(1-(7-(1-acetyl-2,5-dihydro-1H-pyrrol-3-yl)-4-aminopyrrolo[2,1-f][1,2,4]triazin-5-yl)piperidin-3-yl)isoxazole-3-carboxamide] | 149
